Key:
HCT116 cells [1] = experiment: TMRE mitochondrial membrane potential assay; type: cell-based, human; conditions: 10 μM, 24 h
Protocol: HCT116 cells were cultured as above with indicated inhibitors and subject to the tetramethylrhodamine ethyl ester dye method (TMRE) membrane potential assay according to the manufacturers instruction (Abcam ab113852) prior to FACS analysis.

HCT116 cells [2] = experiment: Mitochondrial respiration (Seahorse XF24); type: cell-based, human; conditions: 10 μM
Protocol: Extracellular acidification and oxygen consumption rates (ECAR and OCR) were measured in a XF24 extracellular flux analyzer (Seahorse XF24 Extra Cellular Flux Analyzer, North Billerica, MA, USA). Basic XF assay medium was prepared as previously described supplemented with glucose, and the pH adjusted to 7.4 at 37°C. Indicated final concentrations of compounds were obtained by injecting appropriate amounts of compounds dissolved in DMSO or water and diluted in XF assay medium into ports. […] Indicated data points were obtained after 3 min mixing and 2 min wait, followed by 3 min of data collection. Data were normalized to the basal values.

Substance: MN58B [reference compound]
- TMRE-detectable mitochondrial membrane potential (HCT116 cells [1]): decreased
- mitochondrial respiration immediately after adding inhibitor (acute effect) (HCT116 cells [2]): decreased mitochondrial respiration

Source: PMC5095062, “The novel choline kinase inhibitor ICL-CCIC-0019 reprograms cellular metabolism and inhibits cancer cell growth” (Oncotarget, 2016)
